Source: patent publication US20180244611A1, “Modulators of the Cystic Fibrosis Transmembrane Conductance Regulator Protein and Methods of Use” (AbbVie S.à.r.l., priority 2017, published 2018)
pEC50: −log10 of the molar value.

How the values were obtained:
F508delCFTR [1] = molecular target: T1, F508delCFTR (Homo sapiens, UniProt P13569, DEL508-508); test: Cell Surface Expression-Horse Radish Peroxidase (CSE-HRP) assay, test compound without co-corrector; format: cell-based; details: for pEC50: test compound without co-corrector;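 as to Maximum % activity (without co-corrector): percent of on-plate 2 µM positive control corrector response over DMSO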
T1 construct: expressed in transfected cells; host or cells: CFBE41o- human lung-derived epithelial cells (CFBE41o-F508delCFTR-HRP), doxycycline-inducible
Procedure: (§1) Cell Surface Expression-Horse Radish Peroxidase (CSE-HRP) Assay
(§2) A cellular assay for measuring the F508delCFTR cell surface expression after correction with test compounds either without or with a co-corrector (2 μM of 3-[(2R,4R)-4-({[1-(2,2-difluoro-1,3-benzodioxol-5-yl)cyclopropyl]carbonyl}amino)-7-methoxy-3,4-dihydro-2H-chromen-2-yl]benzoic acid), was developed in human lung derived epithelial cell line (CFBE41o-) (Veit G et al, (2012) Mol Biol Cell. 23(21): 4188-4202). The development was achieved by expressing the F508delCFTR mutation along with a horseradish peroxidase (HRP) in the fourth exofacial loop, and then measuring the HRP activity using luminescence readout from these cells, CFBE41o-F508delCFTR-HRP, that were incubated overnight with the test corrector compounds, either without or with the co-corrector. For this primary assay, the CFBE41o-F508delCFTR-HRP cells were plated in 384-well plates (Greiner Bio-one; Cat 781080) at 4,000 cells/well along with 0.5 μg/mL doxycycline to induce the F508delCFTR-HRP expression and further incubated at 37° C., 5% CO2 for 72 hours. The test compounds were then added either without or with a co-corrector at the required concentrations and further incubated for 18-24 hours at 33° C. The highest concentration tested was 20 μM with an 8-point concentration response curve using a 3-fold dilution in both the test compound without or with the co-corrector. Three replicate plates were run to determine one EC50. All plates contained negative controls (dimethyl sulfoxide, DMSO) and positive control (2 μM of 3-[(2R,4R)-4-({[1-(2,2-difluoro-1,3-benzodioxol-5-yl)cyclopropyl]carbonyl}amino)-7-methoxy-3,4-dihydro-2H-chromen-2-yl]benzoic acid) as well as on-plate concentration response of the positive control. Post incubation, the plates were washed 5× times with Dulbecco's phosphate buffered saline (DPBS), followed by the addition of the HRP substrate, luminol (50 μL), and measuring the HRP activity using luminescence readout on EnVision® Multilabel Plate Reader (Perkin Elmer; product number 2104-0010). The raw counts from the experiment were analyzed using Accelrys® Assay Explorer v3.3.
(§3) Z′ greater than 0.5 was used as passing quality control criteria for the plates.
(§4) 1−[3*SDPositive Control+3*SDNegative Control/Absolute (MeanPositive Control−MeanNegative Control)]
(§5) wherein “SD” is standard deviation.
(§6) The % activity measured at each of the 8 test concentrations of the test compound added either without or with a co-corrector (2 μM of 3-[(2R,4R)-4-({[1-(2,2-difluoro-1,3-benzodioxol-5-yl)cyclopropyl]carbonyl}amino)-7-methoxy-3,4-dihydro-2H-chromen-2-yl]benzoic acid) was normalized to the on-plate positive control using the following formulae:
% activity (Test compound without co-corrector)=[(test compound without co-corrector response−DMSO response)/(positive control response−DMSO response)]*100%
(§7) The maximum % activity achieved for the test compound either without or with a co-corrector at any tested concentration is presented in Table 1 along with the respective EC50's calculated using the following general sigmoidal curve with variable Hill slope equation (described as Model 42 in the Accelrys® Assay Explorer v3.3 software):
(§8) General sigmoidal curve with concentration, response, top, bottom, EC50 and Hill slope. This model describes a sigmoidal curve with an adjustable baseline, a. The equation can be used to fit curves where response is either increasing or decreasing with respect to the independent variable, “x”.
“x” is a concentration of drug under test. “y” is the response. “a” is the maximum response, and “d” is the minimum response “c” is the inflection point (EC50) for the curve. That is, “y” is halfway between the lower and upper asymptotes when x=c. “b” is the slope-factor or Hill coefficient. The sign of b is positive when the response increases with increasing dose and is negative when the response decreases with increasing dose (inhibition). The data is presented with the qualifiers shown below: […]

F508delCFTR [2] = molecular target: T1, F508delCFTR; test: Cell Surface Expression-Horse Radish Peroxidase (CSE-HRP) assay, test compound with co-corrector; format: cell-based; details: with 2 μM co-corrector; for Maximum % activity (with co-corrector): maximum at any tested concentration, normalized to positive control;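 as to Maximum % activity (with co-corrector): percent of 2 µM positive control corrector over DMSO; co-corrector is that same compound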
Procedure: as §1, §2, §3, §4, §5, §6
activity (Test compound with co-corrector)=[(test compound with co-corrector response−DMSO response)/(positive control response−DMSO response)]*100
as §7, §8
“x” is a concentration of drug under test. “y” is the response. “a” is the maximum response, and “d” is the minimum response “c” is the inflection point (EC50) for the curve. That is, “y” is halfway between the lower and upper asymptotes when x=c. “b” is the slope-factor or Hill coefficient. The sign of b is positive when the response increases with increasing dose and is negative when the response decreases with increasing dose (inhibition).

[3] = maximum at any tested concentration, normalized to positive control, without co-corrector

T1 sequence (P13569 with tags, fused parts or gaps DEL508-508): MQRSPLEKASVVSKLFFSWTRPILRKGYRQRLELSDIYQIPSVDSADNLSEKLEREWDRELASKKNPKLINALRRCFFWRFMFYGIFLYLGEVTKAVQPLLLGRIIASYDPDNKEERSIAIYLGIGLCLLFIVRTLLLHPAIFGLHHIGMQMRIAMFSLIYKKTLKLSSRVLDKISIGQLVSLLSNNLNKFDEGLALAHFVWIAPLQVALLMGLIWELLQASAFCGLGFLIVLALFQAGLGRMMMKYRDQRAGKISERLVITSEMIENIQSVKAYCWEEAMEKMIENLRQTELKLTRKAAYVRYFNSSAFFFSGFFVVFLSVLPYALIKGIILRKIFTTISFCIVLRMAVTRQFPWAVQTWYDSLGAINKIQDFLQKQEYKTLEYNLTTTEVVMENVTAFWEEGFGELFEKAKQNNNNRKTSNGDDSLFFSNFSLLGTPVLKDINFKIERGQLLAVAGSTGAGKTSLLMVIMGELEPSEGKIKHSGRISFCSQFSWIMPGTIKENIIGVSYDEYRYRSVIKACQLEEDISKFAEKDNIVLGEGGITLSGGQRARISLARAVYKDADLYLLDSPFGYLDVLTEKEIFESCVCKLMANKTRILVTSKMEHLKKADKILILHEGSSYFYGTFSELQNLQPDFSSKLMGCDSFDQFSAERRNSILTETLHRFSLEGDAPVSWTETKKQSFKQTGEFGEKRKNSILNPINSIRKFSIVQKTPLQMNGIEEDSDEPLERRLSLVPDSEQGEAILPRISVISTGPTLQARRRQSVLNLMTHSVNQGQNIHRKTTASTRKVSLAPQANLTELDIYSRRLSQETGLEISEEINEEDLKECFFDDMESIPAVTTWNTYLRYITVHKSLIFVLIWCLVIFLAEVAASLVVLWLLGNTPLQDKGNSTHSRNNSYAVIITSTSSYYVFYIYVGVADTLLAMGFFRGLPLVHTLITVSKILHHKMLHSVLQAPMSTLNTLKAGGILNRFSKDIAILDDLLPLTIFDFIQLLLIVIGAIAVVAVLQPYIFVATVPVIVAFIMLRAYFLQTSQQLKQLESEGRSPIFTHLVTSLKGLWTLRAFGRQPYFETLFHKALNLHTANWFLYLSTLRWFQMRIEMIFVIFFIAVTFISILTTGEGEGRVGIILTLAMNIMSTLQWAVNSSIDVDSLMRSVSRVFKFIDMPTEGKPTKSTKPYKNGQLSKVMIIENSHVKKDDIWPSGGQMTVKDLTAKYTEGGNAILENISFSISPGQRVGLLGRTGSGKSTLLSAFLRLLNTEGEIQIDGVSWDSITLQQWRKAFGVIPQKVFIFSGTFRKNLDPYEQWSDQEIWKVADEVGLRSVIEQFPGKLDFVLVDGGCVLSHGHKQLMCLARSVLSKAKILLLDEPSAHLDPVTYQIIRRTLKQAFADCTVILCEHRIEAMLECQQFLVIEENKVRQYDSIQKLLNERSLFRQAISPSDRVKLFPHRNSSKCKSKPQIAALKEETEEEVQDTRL

Row | Compound | pEC50 (F508delCFTR [1]) | Maximum % activity (with co-corrector) (F508delCFTR [2]) | pEC50 (F508delCFTR [2]) | Emax (F508delCFTR [1]; [3]) | Maximum % activity (without co-corrector) (F508delCFTR [1]; [3])
1 | 2-cyclobutyl-5-methoxy-N-(1-methyl-1H-benzimidazole-7-sulfonyl)bicyclo[4.2.0]octa-1,3,5-triene-7-carboxamide [Example I-134] | > 5.52 | +++ (≥350) | > 5.52 | – | +++ (≥150)
2 | COc1ccc(Cl)c2c1CC[C@@H]2C(=O)NS(=O)(=O)c1cccc2ccccc12 (single isomer, unassigned) [Example I-87] | 5.00 to 5.52 | +++ (≥350) | 5.00 to 5.52 | 50 to 150% | –
3 | COc1ccc(C2CCC2)c2c1[C@@H](C(=O)NS(=O)(=O)c1cccc3c1CCCN3)C2 (single isomer, unassigned) [Example I-145] | 5.00 to 5.52 | +++ (≥350) | 5.00 to 5.52 | ≥ 150% | –
4 | COc1ccc(C2CCC2)c2c1[C@@H](C(=O)NS(=O)(=O)c1cccc3ncccc13)C2 (single isomer, unassigned) [Example I-147] | 5.00 to 5.52 | +++ (≥350) | > 5.52 | ≥ 150% | –
5 | COc1ccc(C2CCC2)c2c1[C@H](C(=O)NS(=O)(=O)c1cccc3ncccc13)C2 (single isomer, unassigned) [Example I-148] | > 5.52 | +++ (≥350) | > 5.52 | ≥ 150% | –
6 | CCCCC1(C(=O)NS(=O)(=O)c2cccc3ccccc23)CCc2c(Cl)cccc21 (stereo not drawn) [Example I-30, 1-butyl-4-chloro-N-(naphthalene-1-sulfonyl)-2,3-dihydro-1H-indene-1-carboxamide] | – | +++ (≥350) | > 5.52 | – | –

Continued, in another order:

Row | pEC50 (F508delCFTR [1]) | Maximum % activity (with co-corrector) (F508delCFTR [2]) | pEC50 (F508delCFTR [2]) | Emax (F508delCFTR [1]; [3]) | Compound | Maximum % activity (without co-corrector) (F508delCFTR [1]; [3])
7 | 5.00 to 5.52 | +++ (≥350) | > 5.52 | ≥ 150% | COc1ccc(Br)c2c1[C@@H](C(=O)NS(=O)(=O)c1cccc3ncccc13)CCC2 (single isomer, unassigned) [Example I-62] | –
8 | > 5.52 | +++ (≥350) | > 5.52 | ≥ 150% | COc1ccc(Br)c2c1[C@H](C(=O)NS(=O)(=O)c1cccc3ncccc13)CCC2 (single isomer, unassigned) [Example I-63] | –
9 | 5.00 to 5.52 | +++ (≥350) | > 5.52 | ≥ 150% | COc1ccc(Cl)c2c1CC[C@H]2C(=O)NS(=O)(=O)c1cccc2ccccc12 (single isomer, unassigned) [Example I-86] | –
10 | 5.00 to 5.52 | +++ (≥350) | > 5.52 | ≥ 150% | COc1ccc(C2CCC2)c2c1[C@@H](C(=O)NS(=O)(=O)c1cccc3ccccc13)C2 (single isomer, unassigned) [Example I-106] | –
11 | > 5.52 | +++ (≥350) | > 5.52 | ≥ 150% | COc1ccc(C2CCC2)c2c1[C@H](C(=O)NS(=O)(=O)c1cccc3ccccc13)C2 (single isomer, unassigned) [Example I-107] | –
12 | 5.00 to 5.52 | +++ (≥350) | > 5.52 | ≥ 150% | COc1ccc(C2CCC2)c2c1[C@@H](C(=O)NS(=O)(=O)c1cccc3cnn(C)c13)CC2 (single isomer, unassigned) [Example I-141] | –
13 | > 5.52 | +++ (≥350) | > 5.52 | ≥ 150% | COc1ccc(C2CCC2)c2c1[C@H](C(=O)NS(=O)(=O)c1cccc3cnn(C)c13)CC2 (single isomer, unassigned) [Example I-142] | –
14 | 5.00 to 5.52 | +++ (≥350) | > 5.52 | 50 to 150% | COc1ccc(C2CCC2)c2c1[C@@H](C(=O)NS(=O)(=O)c1cccc3cnn(C)c13)C2 (single isomer, unassigned) [Example I-143] | –
